Data: a melting point compilation (Tetko et al.; mined from patent text by program, amines drawn as free bases though some values may be those of a salt)

SMILES	melting point
Nc1c(Cl)cc(C(O)CNCCCCCCSCCc2ccccn2)cc1Cl (centres undefined)	83 to 84 °C
CC(C)(C)OC(=O)N1C2CCC1CN(CC(O)COc1ccc(C#N)cc1)C2 (centres undefined)	98 to 104 °C
C=CCOP1(=S)OCc2cc(C)cnc2O1 (centres undefined)	79 to 80 °C
CCOC(=O)c1c(COC(C)=O)cccc1S(N)(=O)=O	98 to 100 °C
CCN1C(=O)CCC(C)(C)c2cc([N+](=O)[O-])ccc21	67 °C
C[C@@H]1[C@H](c2ccccc2)OC(=O)N1C(=O)CC1c2ccccc2C=Cc2ccccc21	172 to 173 °C
O=C1C(CCC(O)c2ccc(F)cc2)C(c2ccc(-c3ccc(C4OC(CO)C(O)C(O)C4O)cc3)cc2O)N1c1ccccc1 (centres undefined)	152 to 160 °C
Clc1cccc(Oc2ncccc2C2=NC(c3ccccc3)CO2)c1 (centres undefined)	78 to 80 °C
Fc1cc(-n2cc(CNC(=S)c3ccccn3)nn2)ccc1N1CCSCC1	158 to 160 °C
Nc1cccc(C(=O)c2ccc(Cl)cc2)c1	114 to 115 °C
CCOP(=O)(Cc1ccc(NC(=O)/C=C/c2cn(Cc3ccccc3)nc2-c2ccc(F)cc2)cc1)OCC	199 to 200 °C
CC(=O)c1cc(NS(C)(=O)=O)ccc1F	120 to 123 °C
CCOC(=O)c1nc(-c2ccc(N3CCOCC3)cc2)[nH]c1-c1ccc(Cl)cc1	215 °C
COc1ccc(N=C2C=CC(=O)C=C2)c(CO)c1	87 to 89 °C
COc1ccnc(CN2C(=O)C(NC(=O)Nc3cccc(C)c3)N=C(c3ccccc3F)c3ccccc32)c1 (centres undefined)	195 to 200 °C
O=[N+]([O-])c1cc(C(F)(F)F)c(Cl)c([N+](=O)[O-])c1Nc1ncc(Cl)cc1Cl	64 to 65 °C
Cc1nc2ccc3c(c2o1)OC(CN1CCC(O)(c2cccc(C(F)(F)F)c2)CC1)CO3 (centres undefined)	148 to 151 °C
Cc1ccc(COc2cccnc2NC(=S)Nc2ccc(Cl)cc2)cc1	145 to 147 °C
NC(=O)c1sc2nccc(N3CCCN(c4ccc(F)cc4)CC3)c2c1N	203 to 205 °C
Cc1nc(-c2cccc(Cl)c2)c2cc(C(O)(c3ccc(Cl)cc3)c3cncn3C)ccc2n1 (centres undefined)	223 °C
COc1ccc(-c2sc3ccccc3c2C(=O)c2ccc(O)cc2)cc1	188 to 189 °C
Cc1cc(-c2ccc(C(F)(F)F)cc2)nc(-c2ccnc(-c3cccc(S(N)(=O)=O)c3)c2)n1	218 °C
CN(c1cccc2cc(C3=NCC(CN4CCOCC4)S3)[nH]c12)S(=O)(=O)c1cccs1 (centres undefined)	139 to 140 °C
ClC(Cl)=CCOc1cc(Cl)c(OCCCCOc2ccc(Cl)cc2)c(Cl)c1	54.5 °C
COc1cc(Nc2c(C#N)cnc3cc(-c4ccc(CN5CCC[C@@H]5C(N)=O)cc4)ccc23)c(Cl)cc1Cl	180 to 182 °C

SMILES	melting point
CCN(CC)c1ccc2c(c1)OC(=O)N(c1ccccc1)C2(c1ccc(N(C)C)cc1)c1ccc(N(C)C)cc1	206 to 207 °C
Cn1nc(N)nc1NCCCOc1cccc(CNC2CCCCC2)c1	102 to 103 °C
COc1ccc(-c2[nH]nc3c2C(=O)c2c(NC(=O)NCc4ccc(N)cc4)cccc2-3)cc1	> 300 °C
c1ccc(-c2ccc3nncn3n2)cc1	138 to 139 °C
O=C(O)Cn1c(=O)c(=O)n(O)c2ccc(Cl)cc21	280 to 282 °C
O=C(O)c1cc(Cl)cc(Cl)c1[N+](=O)[O-]	190 to 192 °C
COC(=O)c1ccnc2ccc(C(=O)c3ccc(Cl)cc3)cc12	126 °C
COc1ccc(COc2ccc(OC)c(Cc3cnc(N)nc3N)c2)cc1	220 to 221 °C
COc1ccccc1CC(O)(Cc1cccs1)C(C)(C)C (centres undefined)	74 to 75 °C
O=c1cc(-c2cccc(Cl)c2)oc2ccc(OCCCCCCN3CCC(O)CC3)cc12	120 to 121 °C
CC(C)(C)OC(=O)C[C@H](NC(=O)c1ccc(CCC(=O)NC2=NCCCN2)s1)c1ccc2c(c1)OCO2	130 °C
COC(=O)c1ccc2c(nc(C)n2C)c1C(=O)OC	205 to 208 °C
O=C(CC1CCOCC1)N[C@H]1CC[C@H](CCN2CCN(c3nccc4ccoc34)CC2)CC1	213 °C
Cc1ccc(NC(=O)NN(C(=O)c2ccccc2)C(C)(C)C)cc1	208 to 210 °C
Cc1ccc(S(=O)(=O)OCC2CC(OS(=O)(=O)c3ccc(C)cc3)CN2S(=O)(=O)c2ccc(C)cc2)cc1 (centres undefined)	134 to 135 °C
CCOc1ccc(C(=O)N(C)Cc2cccc(-c3ccc(CC4SC(=O)NC4=O)cc3)c2)cc1 (centres undefined)	182 °C
COc1ccnc(CCc2nc3cc(-c4ccc(S(=O)(=O)Nc5ccc(C)cc5)cc4)cnc3[nH]2)c1	219 to 220 °C
N=C(N)Nc1nc2ccc(C(F)(F)F)cc2[nH]1	206 to 209 °C
CN(C)c1cccc(-c2cccc(-c3ccnc4c(C(=O)c5cccs5)cnn34)c2)c1	167 to 169 °C
CCOP(=O)(CC(=O)Nc1cc2c(Nc3ccc(Cl)c(Cl)c3)ncnc2cn1)OCC	121 to 124 °C
COc1ccc(N(c2ccc(C=Cc3ccc4ccc5cccc6ccc3c4c56)cc2)c2ccc(OC)cc2)cc1	160 °C
CCOCc1nc2c(N)nc3cc(-c4ccccc4)ccc3c2n1CC(C)(C)O	211 to 212 °C
CNC(=O)Oc1ccc2onc(NCCN3CCOCC3)c2c1	135 to 136 °C
O=C1CO[C@@H]2c3ccccc3OCC[C@H]2N1 (relative stereo)	246 to 248 °C
